Measurements published in patent US20180369186A1, “METHOD FOR MODULATING AUTOPHAGY AND APPLICATIONS THEREOF” (JAWAHARLAL NEHRU CENTRE FOR ADVANCED SCIENTIFIC RESEARCH, priority 2015, published 2018).

What was measured:
α-synuclein toxicity = experiment: S. cerevisiae α-synuclein toxicity model, growth assay; type: cell-based; details: 50 μM
Protocol: To screen small molecule library LOPAC1280 in S. cerevisiae SNCA toxicity model, working plates containing 50 μM drugs in 1.5% DMSO (190 compounds/plate) are prepared in a 384 well format. WT SNCA-GFP with or without small molecules and untreated WT GFP are grown under optimized conditions (80 μl, 30° C. and 420 rpm) for 36 h in a plate reader (Varioskan Flash, Thermo Scientific) in duplicates with automatic absorbance (A600) recording every 20 min. Growth curves of untreated WT GFP and WT SNCA-GFP strains are plotted and mid to late exponential phase time point of untreated WT GFP strain is chosen as reference for data analysis. Its corresponding time point of untreated and drug treated WT SNCA-GFP strains are plotted separately in a box plot. Small molecules that rescued the growth lag by ≥3 SD units of untreated WT SNCA-GFP strain are considered as ‘Hits’.
Growth assays: In a 384 well plate, appropriate yeast strains are seeded (A600˜0.07) with and without drugs and incubated (80 μl, 30° C. and 420 rpm) in a multiplate reader (Varioskan Flash, Thermo Scientific) for 48 h with automatic absorbance (A600) recording every 20 min. Growth curves are plotted and analyzed using GraphPad Prism.
Induction of α-synuclein-EGFP aggregates: To induce α-synuclein-EGFP aggregates, the corresponding strains are inoculated in SD-Ura medium, Secondary culture is inoculated from primary inoculum and incubated till A600 reaches 0.8/ml. Cells are washed twice with sterile water and aggregates are induced by adding SG-Ura for 12-16 h.
To screen small molecule library LOPAC^1280 in S. cerevisiae α-synuclein toxicity model, working plates containing 50 μM drugs (small molecule) in 1.5% DMSO (190 compounds/plate) are prepared in a 384 well format. WT α-synuclein-EGFP with and without small molecules and untreated WT EGFP are grown under optimized conditions (80 μl, 30° C. and 420 rpm) for 36 h in a plate reader (Varioskan Flash, Thermo Scientific) in duplicates with automatic absorbance (A600) recording every 20 min.
Growth curves of untreated WT EGFP and WI α-synuclein-EGFP strains are plotted and mid to late exponential phase time point of untreated WT EGFP strain is chosen as reference for data analysis. Its corresponding time point of untreated and drug treated WT α-synuclein-EGFP strains are plotted separately in a box plot.
Appropriate yeast strains are seeded (A600 ˜0.07) with or without drugs in a 384-well plate and incubated (420 rpm, 30° C. and 80 μl) in a multiplate reader (Varioskan Flash, Thermo Scientific) for 48 h that records absorbance (A600) automatically for every 20 min. Growth curves are plotted using GraphPad Prism.

[1] = Open field test in MPTP mice; type: in vivo; details: 5 mg/kg
Protocol: All the behavioural experiments are done on 3-4 month old, male C57/B16 mice. Experimenters are blind to the drug injected animals. Experimenters handle mice used for behavioral experiments for 3 consecutive days prior to the training paradigm. Behavioral experiments are designed in an order of low to high stress activity for mice. Therefore, Open Field Test is conducted in forenoon while rotarod is performed in the afternoon.
Mice were habituated to the behaviour room for 15 minutes every day before start of experiments. The light intensity is maintained at 100 lux throughout the experiment. Mice are weighed every day before training or test to ensure their good health. Mice are randomly allocated into three treatment cohorts: placebo control, MPTP and 6-Bio. Data is plotted using GraphPad prism 5 software.
Open field arena (50 cm×50 cm×45 cm) is custom-made (JNCASR) using plywood and the internal surface was coated with white polish. Mice are trained in open field for 2 consecutive days prior to drug injection. […] The activity is video recorded (SONY® color video camera, Model no. SSC-G118) using a software (SMART v3.0.04 from Panlah, Harvard Apparatus, USA). […] Distance travelled is analyzed offline by an experimenter who was not involved in performing the experiment.

Pot1-GFP (peroxisomes) = experiment: Pot1-GFP pexophagy assay; type: cell-based, S. cerevisiae
Protocol: Pot1-GFP positive strains are allowed to grow till the A600 reached 0.8-1 in YPD. Peroxisome biogenesis is induced by growing these cells in oleate medium (0.1% oleate, 0.5% Tween-40, 0.25% yeast extract, 0.5% peptone, and 5 mM phosphate buffer) for 12hours. Cells are harvested, washed twice to remove traces of oleate and transferred to starvation medium without nitrogen, at inoculum density A600 3, to induce pexophagy. Cells are collected at various time intervals after pexophagy induction and processed by TCA method.
Pot1-GFP positive strains are allowed to grow in yeast extract peptone dextrose (YPD) (2% dextrose, 2% peptone and 1% yeast extract) till the Absorbance at 600 nm reaches 0.6-0.8. Peroxisome biogenesis is induced by growing these cells in YPG medium (1% yeast extract, 2% peptone, 3% glycerol) for 12 hours.
Cells are harvested, washed twice to remove traces of oleate and transferred to starvation medium with and without Acacetin, at. inoculum density Absorbance at 600 nm 3/ml, to induce pexophagy. Cells are collected at various time intervals after pexophagy induction and processed by TCA precipitation.

p62, MAP1LC3B-II = experiment: p62 and MAP1LC3B immunoblotting in Atg5+/+ and Atg5−/− MEFs; type: cell-based, mouse; details: 5 μM, 24 h
Protocol: Western blotting is performed using standard methods. Immunoblotting in MEFs is carried out as described previously. Dilutions of primary antibodies used are as follows: Anti-p62 1:1000 (Progen Biotechnik, GP62-C), Anti-MAP1LC3B 1:3000 (Nevus Biologicals, NB100-2220) and Anti-GAPDH (Cell Signalling Technologies, 2118S). Secondary antibodies conjugated to HRP are used at 1:10000 dilution as follows: Anti-Guinea-Pig-HRP (Abeam, ab50210) and Anti-Rabbit-HRP (Calbiochem, 401393).

HeLa and SH-SY5Y cells = experiment: Cell viability of HeLa and SH-SY5Y after 72 h (CellTitre Glo); type: cell-based, human; details: various concentrations
Protocol: In another embodiment of the present disclosure, FIG. 47 illustration non-toxicity of XCT 790 to cells (Hela and SHSY5Y) and scheme for α-synculein toxicity assay. Cell viability of cell lines like HeLa (a) and SH-SY5Y (b) after 72 h of XCT 790 treatments for various indicated concentrations. Cell viability was assayed using CellTitre Glo (Promega) kit.

With `O=C1Nc2cc(Br)ccc2/C1=C1/Nc2ccccc2/C1=N\O` [6-Bio, (2′Z,3′E)-6-Bromoindirubin-3′-oxime] the “rescue of growth lag due to α-synuclein toxicity” value (α-synuclein toxicity; WT α-synuclein-EGFP strain) was “rescues the growth lag”, the “rescue of growth lag in autophagy mutants expressing α-synuclein” value (α-synuclein toxicity; atg1Δ, atg5Δ, atg8Δ, atg11Δ and atg15Δ) was “fails to rescue growth lag” and the “distance travelled, Co versus MPTP” value ([1]; MPTP+Co, day 13) was “increased dramatically”. For the same compound, the “distance travelled, Post versus MPTP” value ([1]; administered after 48 h MPTP) was “not protected”.

With `Cc1ccc(S(=O)(=O)/C=C/C#N)cc1` [Bay11, 3-[(4-methylphenyl)sulfonyl]-(2E)-propenenitrile] the “degradation of peroxisomes (Pot1-GFP)” value (Pot1-GFP (peroxisomes); starvation) was “delay the degradation of peroxisomes”, the “localisation of peroxisomes (fluorescence microscopy)” value (Pot1-GFP (peroxisomes); starvation, 25 μM Bay11, 50 μM ZPCK) was “accumulate outside the vacuoles” and the “free GFP release from Pot1-GFP” value (Pot1-GFP (peroxisomes); wild type cells, up to 6 hours of starvation) was “No free GFP release”. The “MAP1LC3B-II levels in Atg5+/+ MEFs” value (p62, MAP1LC3B-II) was “reduces MAP1LC3B-II levels”, the “endogenous p62 levels in Atg5+/+ MEFs” value (p62, MAP1LC3B-II) was “significantly increases endogenous p62 levels” and the “endogenous p62 levels in Atg5−/− MEFs” value (p62, MAP1LC3B-II) was “no significant effect”.

For `COc1cc(C=C(C#N)C(=O)Nc2nnc(C(F)(F)F)s2)ccc1OCc1ccc(C(F)(F)F)cc1C(F)(F)F` [XCT 790, 3-[4-(2,4-Bis-trifluoromethylbenzyloxy)-3-methoxyphenyl]-2-cyano-N-(5-trifluoromethyl-1,3,4-thiadiazol-2-yl)acrylamide], the “rescue of growth lag, treated vs untreated” value (α-synuclein toxicity; WT α-syn cells) was about 3.2 fold and the toxicity to cells (HeLa and SH-SY5Y cells) was “non-toxicity”.
